Data taken from patent US8975417B2, “Pyrazolopyrrolidine derivatives and their use in the treatment of disease” (Novartis AG, priority 2013, dated 2015).

Columns and labels:
His-Brd4(44-477) = His-Brd4(44-477) (Homo sapiens (Human), UniProt O60885); experiment: TR-FRET in-vitro binding assay for BRD4; settings: biochemical
Procedure, shortened: (§1)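 Bromodomain protein (45 nM in its addition solution) and tetra-acetylated histone H4 peptide (AcK5/8/12/16; 60 nM in its addition solution) were incubated with compounds for 35 min at 30 °C in 50 mM HEPES pH 7.5, 50 mM NaCl, 0.005% Tween20, 0.1% BSA. Eu-anti-His6 plus streptavidin-allophycocyanin detection followed, with TR-FRET read-out.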

His-Brd2(60-472) = His-Brd2(60-472) (Homo sapiens (Human), UniProt P25440); experiment: TR-FRET in-vitro binding assay for BRD2; settings: biochemical
Sequence of His-Brd2(60-472) (P25440 60-472): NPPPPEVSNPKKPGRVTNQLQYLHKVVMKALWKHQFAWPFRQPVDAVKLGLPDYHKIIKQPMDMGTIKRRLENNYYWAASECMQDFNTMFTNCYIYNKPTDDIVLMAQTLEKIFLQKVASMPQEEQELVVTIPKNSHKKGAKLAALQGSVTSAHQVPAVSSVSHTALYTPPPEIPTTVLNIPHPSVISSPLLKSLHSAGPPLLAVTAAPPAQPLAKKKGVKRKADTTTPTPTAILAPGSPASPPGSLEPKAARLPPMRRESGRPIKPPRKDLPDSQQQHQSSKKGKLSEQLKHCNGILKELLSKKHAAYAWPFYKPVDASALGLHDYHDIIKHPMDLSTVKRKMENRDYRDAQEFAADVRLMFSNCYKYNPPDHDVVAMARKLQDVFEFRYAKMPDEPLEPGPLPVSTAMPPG
Procedure, shortened: as §1

His-Brd3(20-477) = His-Brd3(20-477) (Homo sapiens (Human), UniProt Q15059); experiment: TR-FRET in-vitro binding assay for BRD3; settings: biochemical
Sequence of His-Brd3(20-477) (Q15059 20-477): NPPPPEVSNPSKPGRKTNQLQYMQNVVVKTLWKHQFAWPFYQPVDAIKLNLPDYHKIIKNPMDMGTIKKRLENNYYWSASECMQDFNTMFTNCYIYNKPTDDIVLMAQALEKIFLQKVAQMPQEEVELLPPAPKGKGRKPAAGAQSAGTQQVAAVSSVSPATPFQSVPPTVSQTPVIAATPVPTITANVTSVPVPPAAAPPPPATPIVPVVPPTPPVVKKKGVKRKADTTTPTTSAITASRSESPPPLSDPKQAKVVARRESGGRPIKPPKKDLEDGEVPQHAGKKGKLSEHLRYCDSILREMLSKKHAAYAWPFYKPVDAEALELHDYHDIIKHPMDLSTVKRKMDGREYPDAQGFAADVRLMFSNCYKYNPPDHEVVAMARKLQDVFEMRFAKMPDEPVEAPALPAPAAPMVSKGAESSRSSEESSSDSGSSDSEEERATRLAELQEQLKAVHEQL
Procedure, shortened: as §1

[1] = molecular target: His-CREBBP (1081-1197) bromodomain (Homo sapiens (Human), UniProt Q92793); experiment: AlphaScreen in-vitro binding assay for CREBBP; settings: biochemical
Sequence of His-CREBBP (1081-1197) bromodomain (Q92793 1081-1197): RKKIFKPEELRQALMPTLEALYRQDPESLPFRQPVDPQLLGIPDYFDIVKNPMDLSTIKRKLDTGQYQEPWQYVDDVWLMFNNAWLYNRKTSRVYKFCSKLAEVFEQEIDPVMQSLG
Procedure, shortened: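 Ni-chelate acceptor and streptavidin donor beads (45 µg/mL each, in 50 mM HEPES pH 7.5, 150 mM NaCl, 0.02% BSA) were then added for 60 min at room temperature. IC50 came from 8-point non-linear regression.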

MV-4-11 cells = experiment: Cell growth inhibition assay (CellTiter-Glo), MV-4-11; type: cell-based; settings: Homo sapiens, MV4-11, read-out: MV-4-11 TGI
Description: (§2) Cell Growth Inhibition Assay
(§3) The human leukemia cell lines MV-4-11, THP-1 and K-562 were employed to characterize the effect of BET inhibitors on cellular proliferation and viability. Cells were obtained from the American Type Culture Collection (ATCC) and cultured at 37° C. in a humidified 5% CO2 incubator in the following media: MV-4-11: DMEM high glucose (Animed #1-26F01-I), 10% FCS (Animed #2-01F26-I), 4 mM L-Glutamine (Animed #5-10K50), 1 mM Sodium Pyruvate (Animed # G03625P), 1× Penicillin-Streptomycin (Animed # F12478P); K-562: Iscove's MEM (Animed #1-28F16-I), 10% FCS (Animed #2-01F26-I), 4 mM L-Glutamine (Animed #5-10K50), 1× Penicillin-Streptomycin (Animed # F12478P); THP-1: RPMI-1640 (Animed #1-41F01-I), 10% FCS (Animed #2-01F26-I), 2 mM L-Glutamine (Animed #5-10K50), 10 mM HEPES (Animed #5-31F100), 1 mM Sodium Pyruvate (Animed # G03625P), 1× Penicillin-Streptomycin (Animed # F12478P). The AML lines MV-4-11 and THP-1 are very sensitive to BET inhibitors and show massive cell death upon BET inhibition (Zuber et al., Nature, 478 (2011), 524-8). Compound-mediated suppression of cell proliferation/viability was assessed by quantification of cellular ATP levels using the CellTiter-Glo (CTG) reagent (Promega). Briefly, cells were seeded in 20 μl fresh medium into 384-well plates, followed by addition of 5 μL medium containing compound dilutions at 5-fold their final intended concentration. Dose-response effects were assessed by 3-fold serial dilutions of the test compound, starting at 10 μM. Following incubation of the cells for days at 37° C. and 5% CO2, the effect of inhibitors on cell viability was quantified following addition of 20 μl CTG and luminescence quantification (integration time: 100 ms) as per vendor manual, using a correspondingly equipped Tecan M200 multi-mode platereader (TECAN, Switzerland). For data analysis, the assay background value determined in wells containing medium, but no cells, was subtracted from all data points. To enable differentiation of cytotoxic from cytostatic compounds, the number of viable cells is assessed relative to that observed at the time of compound addition using a separate cell plate (day 0). The effect of a particular test compound concentration on cell proliferation/viability is expressed as percentage of the background- and day 0-corrected luminescence reading obtained for cells treated with vehicle only (DMSO, 0.1% final concentration), which is set as 100%, whereas that luminescence reading for wells containing medium is set as −100%. Compound concentrations leading to half-maximal (IC50) and total growth inhibition (TGI) were determined using standard four parameter curve fitting.

THP-1 cells = experiment: Cell growth inhibition assay (CellTiter-Glo), THP-1; type: cell-based; settings: Homo sapiens, read-out: THP-1 TGI
Description: as §2, §3

K-562 cells = experiment: Cell growth inhibition assay (CellTiter-Glo), K-562; type: cell-based, human; settings: Homo sapiens, K562, read-out: K-562 TGI
Description: as §2, §3

| IC50 (His-Brd4(44-477)) | IC50 (His-Brd2(60-472)) | IC50 (His-Brd3(20-477)) | IC50 [1] | Compound | IC (total growth inhibition) (MV-4-11 cells) | IC (total growth inhibition) (THP-1 cells) | IC (total growth inhibition) (K-562 cells) |
| --- | --- | --- | --- | --- | --- | --- | --- |
| 0.067 µM | 0.06 µM | 0.072 µM | 1.7 µM | COc1ncc(-n2nc3c(c2C(C)C)[C@@H](c2ccc(Cl)cc2)N(c2cc(C)c4onc(C)c4c2)C3=O)c(OC)n1 [Example 62, (R)-4-(4-chlorophenyl)-2-(2,4-dimethoxypyrimidin-5-yl)-5-(3,7-dimethylbenzo[d]-isoxazol-5-yl)-3-isopropyl-4,5-dihydropyrrolo[3,4-c]pyrazol-6(2H)-one] | 0.105 µM | 0.174 µM | > 10 µM |
| 0.09 µM | 0.13 µM | 0.088 µM | 2.5 µM | Cc1nn(C(C)C)c2c1C(c1ccc(Cl)cc1)N(c1cc(C)c(=O)n(C)c1)C2=O (stereo not shown) [Example 63, 4-(4-chlorophenyl)-5-(1,5-dimethyl-6-oxo-1,6-dihydropyridin-3-yl)-1-isopropyl-3-methyl-4,5-dihydropyrrolo[3,4-c]pyrazol-6(1H)-one] | 0.0509 µM | 0.115 µM | > 10 µM |
| 0.13 µM | 0.18 µM | 0.11 µM | 0.4 µM | Cc1cc(N2C(=O)c3nn(C(C)C)c(C)c3C2c2ccc(Cl)cc2)cn(C)c1=O (stereo not shown) [Example 64, 4-(4-chlorophenyl)-5-(1,5-dimethyl-6-oxo-1,6-dihydropyridin-3-yl)-2-isopropyl-3-methyl-4,5-dihydropyrrolo[3,4-c]pyrazol-6(2H)-one] | 0.0423 µM | 0.113 µM | > 10 µM |
| 0.2 µM | 0.24 µM | 0.13 µM | 0.42 µM | Cc1c2c(nn1C(C)C)C(=O)N(c1cc(Cl)c(=O)n(C)c1)C2c1ccc(Cl)cc1 (stereo not shown) [Example 65, 5-(5-chloro-1-methyl-6-oxo-1,6-dihydropyridin-3-yl)-4-(4-chlorophenyl)-2-isopropyl-3-methyl-4,5-dihydropyrrolo[3,4-c]pyrazol-6(2H)-one] | 0.109 µM | 0.217 µM | > 10 µM |
| 0.12 µM | 0.16 µM | 0.11 µM | 2.6 µM | Cc1nn(C(C)C)c2c1C(c1ccc(Cl)cc1)N(c1cc(Cl)c(=O)n(C)c1)C2=O (stereo not shown) [Example 66, 5-(5-chloro-1-methyl-6-oxo-1,6-dihydropyridin-3-yl)-4-(4-chlorophenyl)-1-isopropyl-3-methyl-4,5-dihydropyrrolo[3,4-c]pyrazol-6(1H)-one] | 0.106 µM | 0.248 µM | > 10 µM |

More lines, now with the values behind:

| Compound | IC50 (His-Brd4(44-477)) | IC50 (His-Brd2(60-472)) | IC50 (His-Brd3(20-477)) | IC50 [1] | IC (total growth inhibition) (MV-4-11 cells) | IC (total growth inhibition) (THP-1 cells) | IC (total growth inhibition) (K-562 cells) |
| --- | --- | --- | --- | --- | --- | --- | --- |
| Cc1cc(N2C(=O)c3c(c(C(F)(F)F)nn3C3CC3)C2c2ccc(Cl)cc2)cn(C)c1=O (stereo not shown) [Example 45, 4-(4-chlorophenyl)-1-cyclopropyl-5-(1,5-dimethyl-6-oxo-1,6-dihydropyridin-3-yl)-3-(trifluoromethyl)-4,5-dihydropyrrolo[3,4-c]pyrazol-6(1H)-one] | 0.085 µM | 0.06 µM | 0.1 µM | 4.8 µM | 0.373 µM | 0.698 µM | > 10 µM |
| COc1ncc(-n2nc3c(c2C(C)C)C(c2ccc(Cl)cc2)N(c2cc(C)c4onc(C)c4c2)C3=O)c(OC)n1 (stereo not shown) [Example 46, 4-(4-chlorophenyl)-2-(2,4-dimethoxypyrimidin-5-yl)-5-(3,7-dimethylbenzo[d]-isoxazol-5-yl)-3-isopropyl-4,5-dihydropyrrolo[3,4-c]pyrazol-6(2H)-one] | 0.087 µM | 0.13 µM | 0.1 µM | 4.7 µM | 0.166 µM | 0.323 µM | > 10 µM |
| COc1ncc(-n2nc3c(c2C(F)(F)F)C(c2ccc(Cl)cc2)N(c2cc(Cl)c(=O)n(C)c2)C3=O)c(OC)n1 (stereo not shown) [Example 47, 5-(5-chloro-1-methyl-6-oxo-1,6-dihydropyridin-3-yl)-4-(4-chlorophenyl)-2-(2,4-dimethoxypyrimidin-5-yl)-3-(trifluoromethyl)-4,5-dihydropyrrolo[3,4-c]pyrazol-6(2H)-one] | 0.27 µM | 0.21 µM | 0.28 µM | 1.5 µM | 0.158 µM | 0.755 µM | > 10 µM |
| COc1ncc(-n2nc3c(c2C)C(c2ccc(Cl)cc2)N(c2cc(C)c(=O)n(C)c2)C3=O)c(OC)n1 (stereo not shown) [Example 56, 4-(4-chlorophenyl)-2-(2,4-dimethoxypyrimidin-5-yl)-5-(1,5-dimethyl-6-oxo-1,6-dihydropyridin-3-yl)-3-methyl-4,5-dihydropyrrolo[3,4-c]pyrazol-6(2H)-one] | 0.095 µM | 0.069 µM | 0.061 µM | 0.56 µM | 0.0981 µM | 0.124 µM | > 10 µM |
| Cc1nn(C)c2c1C(c1ccc(Cl)cc1)N(c1cc(C)c(=O)n(C)c1)C2=O (stereo not shown) [Example 57, 4-(4-chlorophenyl)-5-(1,5-dimethyl-6-oxo-1,6-dihydropyridin-3-yl)-1,3-dimethyl-4,5-dihydropyrrolo[3,4-c]pyrazol-6(1H)-one] | 0.12 µM | 0.27 µM | 0.13 µM | 6.8 µM | 0.109 µM | 0.24 µM | > 10 µM |
| Cc1nn(C)c2c1C(c1ccc(Cl)cc1)N(c1cc(Cl)c(=O)n(C)c1)C2=O (stereo not shown) [Example 58, 5-(5-chloro-1-methyl-6-oxo-1,6-dihydropyridin-3-yl)-4-(4-chlorophenyl)-1,3-dimethyl-4,5-dihydropyrrolo[3,4-c]pyrazol-6(1H)-one] | 0.41 µM | 0.56 µM | 0.29 µM | 8.2 µM | 0.157 µM | 0.38 µM | > 10 µM |
| COc1nccc(-n2nc(C)c3c2C(=O)N(c2cc(C)c(=O)n(C)c2)C3c2ccc(Cl)cc2)n1 (stereo not shown) [Example 59, 4-(4-chlorophenyl)-5-(1,5-dimethyl-6-oxo-1,6-dihydropyridin-3-yl)-1-(2-methoxypyrimidin-4-yl)-3-methyl-4,5-dihydropyrrolo[3,4-c]pyrazol-6(1H)-one] | 0.39 µM | 0.61 µM | 0.48 µM | 7.3 µM | 0.325 µM | 0.598 µM | > 10 µM |
| CCc1nn(-c2cnc(OC)nc2OC)c2c1C(c1ccc(Cl)cc1)N(c1cc(C)c(=O)n(C)c1)C2=O (stereo not shown) [Example 60, 4-(4-chlorophenyl)-1-(2,4-dimethoxypyrimidin-5-yl)-5-(1,5-dimethyl-6-oxo-1,6-dihydropyridin-3-yl)-3-ethyl-4,5-dihydropyrrolo[3,4-c]pyrazol-6(1H)-one] | 0.14 µM | 0.16 µM | 0.12 µM | 8.8 µM | 0.154 µM | 0.302 µM | > 10 µM |
